Reference: patent US20100040630A1, “METHODS AND COMPOSITIONS FOR TREATING BONE LOSS” (priority 2008, published 2010)

Legend:
RA patients = RA patients receiving infliximab; cited from earlier work
RA = conditions: 7.5 mg daily, compared with placebo; cited from earlier work
[1] = system: patients with early rheumatoid arthritis; assay: Study J: cortical hand bone loss by digital X-ray radiogrammetry metacarpal cortical index (DXR-MCI); type: in vivo, human; conditions: for median percentage DXR-MCI change: change from baseline
Procedure: Generally, the study included 768 patients with active RA for <3 years who were naïve to MTX. Clinical data collections and radiographic examinations of hands were performed at baseline, and after 26, 52 and 104 weeks of therapy. Hand bone loss was assessed by digital X-ray radiogrammetry (DXR), primarily as metacarpal cortical index (MCI), on the same radiographs used for joint damage assessments.
(§1) The radiographic and clinical data from this 2-year, multi-centre, double-blind, randomised controlled study (Study J) was previously been described in detail (see Breedveld et al. (2006) Arthritis Rheum 54:26-37). The efficacy and safety of adalimumab plus MTX was compared with adalimumab monotherapy and with MTX monotherapy for 799 adult patients with early (<3 years), aggressive RA (mean erosion score of approximately 12 Sharp units, estimated annual TSS progression of approximately 27 Sharp units) who previously had not been treated with MTX, cyclophosphamide, cyclosporine, azathioprin or more than 2 other DMARDs (Breedveld et al. (2006), supra). […] Radiographs from hands and feet were scored according to a modified Sharp score (range 0-398) (Breedveld et al. (2006), supra).
(§2) Digital X-ray radiogrammetry (DXR) (Sectra, Linkoping, Sweden) was used to measure hand bone mineral density (BMD) and metacarpal cortical index (MCI) on the same digitized hand X-rays used for assessment of radiographic joint damage. DXR is a computer version of the traditional radiogrammetry technique,[13] and have improved the method and its precision substantially. DXR has been described in detail.[14,15,16] On hand radiographs, the computer automatically recognizes regions of interest (ROI) around the narrowest part of the second, third, and fourth metacarpal bone and measures cortical thickness, bone width, and porosity 118 times per cm. DXR-BMD is defined as: c X VPAcomb X (1-p), where c is a constant (determined by the result that DXR-BMD, on average, is equal to the mid-distal forearm region of the Hologic QDR-2000 device); VPA is volume per area; and p is porosity. DXR-MCI is defined as the combined cortical thickness divided by the outer cortical diameter and is a relative bone measure independent of bone size, bone length, and image capture setting.[16.17] Both DXR-BMD and DXR-MCI provide substantial degrees of precision.[17]
DXR-BMD was intended to be the main outcome measure in this study. However, many radiographs could not be analysed for BMD because of unknown image resolution. Generally, the equation for DXR-BMD is based on volume per area and requires a defined or known resolution, since a distance in a digitised radiograph cannot be measured when the resolution is unknown. Thus, DXR-MCI, which is a relative measure independent of image resolution, was used as the primary outcome measure. […] [19]
(§3) To avoid bias regarding dominant vs. non-dominant hand and to achieve better accuracy, mean value measurements from both hands were used.[10] If the radiograph from one hand could not be analysed or were missing, the radiograph from the available hand for all analyses at the different time points was used.
(§4) Since the data were not normally distributed, non-parametric analyses were conducted. No imputations were performed. Baseline values were compared between treatment groups with the Kruskall-Wallis method for continuous variables and with the chi-squared method for categorical variables. Comparisons of changes in hand BMD were conducted following methodologies parallel and similar to ones employed in the original Study J. Two groups were compared in a hierarchical order with the Mann-Whitney U test (i.e., two-sided comparison of the combination group vs. MTX, followed by two-sided comparisons between the monotherapy treatment arms, and finally two-sided comparisons between the adalimumab monotherapy and the combination group). Each pair-wise comparison was completed only if the previous comparison was statistically significant. […]

[2] = system: patients with early rheumatoid arthritis; assay: Study J: hand bone mineral density by digital X-ray radiogrammetry (DXR-BMD); type: in vivo, human
Source text: as §1, §2
For comparison, results for DXR-BMD are also provided. All images of unknown resolution were analyzed by assuming 254 dpi (the scanning resolution for the radiographs before scoring). Several of the radiographs were, however, clearly of a resolution other than 254 dpi, most likely because they had been printed in non-true size before scanning. All available images from baseline were analyzed, as well as 26, 52 and 104 weeks, by DXR-BMD and calculated mean metacarpal width. Based on analyses from other studies with a controlled resolution, [19] a deviation from baseline width greater than 2% was believed to likely indicate an incorrect value. With this 2% value as a cut-off, 23% of the radiographs were excluded from further DXR-BMD analyses. The flow chart in FIG. 1 illustrates the patients who were included in the DXR-MCI and DXR-BMD analyses.
as §3
as §4, with “significant. Bone loss over time was expressed as a negative value.” for “significant.”

[3] = system: patients with early rheumatoid arthritis; assay: Study J: radiographic joint damage, modified Sharp score; type: in vivo, human
Source text: as §1

[4] = system: early (<3 yrs), active, MTX-naive RA patients; assay: Subanalysis of Study J: DXR-MCI hand bone loss by clinical response (DAS28 subgroups); type: in vivo, human; conditions: for Mean % DXR-MCI change / median % DXR-MCI change: baseline to 52 weeks
Procedure: As described above, Study J compared the efficacy of adalimumab plus MTX vs. MTX alone and adalimumab alone in early (<3 yrs), active, MTX-naive RA patients. The subanalysis described herein involved the MTX monotherapy and the combination therapy groups. Hand bone loss was assessed by digital X-ray radiogrammetry metacarpal cortical index (DXR-MCI), calculated from digitized radiographs (DXR, Sectra, Sweden). […] MCI percentage change from baseline to 52 weeks was evaluated for patients with different clinical response. Disease activity was assessed by DAS28 scores at 52 weeks in 4 subgroups: Remission=DAS28<2.60; Low disease activity=DAS28 2.61-3.20; Moderate disease activity=DAS28 3.21-5.20; and high disease activity=DAS28>5.20. Non-parametric group comparisons were performed.

[5] = High disease activity (DAS28>5.20)
[6] = Low disease activity (DAS28 2.61-3.20)
[7] = Moderate disease activity (DAS28 3.21-5.20)

Molecule | median percentage DXR-MCI change ([1]; 26 weeks) | median percentage DXR-MCI change ([1]; 52 weeks) | median percentage DXR-MCI change ([1]; 104 weeks) | median DXR-BMD percentage change ([2]; 26 weeks) | median DXR-BMD percentage change ([2]; 52 weeks) | median DXR-BMD percentage change ([2]; 104 weeks) | mean radiographic change in the modified Sharp score ([3]; 26 weeks) | median radiographic change in the modified Sharp score ([3]; 26 weeks) | mean radiographic change in the modified Sharp score ([3]; 52 weeks) | median radiographic change in the modified Sharp score ([3]; 52 weeks) | mean radiographic change in the modified Sharp score ([3]; 104 weeks) | median radiographic change in the modified Sharp score ([3]; 104 weeks) | other results
infliximab | – | – | – | – | – | – | – | – | – | – | – | – | bone loss in hip and spine (in words) (RA patients): arrested; hand bone loss (in words) (RA patients): hand bone loss was not halted
C[C@]12C=CC(=O)C=C1CC[C@@H]1[C@@H]2[C@@H](O)C[C@@]2(C)[C@H]1CC[C@]2(O)C(=O)CO [prednisolone] | – | – | – | – | – | – | – | – | – | – | – | – | rate of hand bone loss (in words) (RA): significantly reduce; rate of radiographic joint damage (in words) (RA): significantly reduce
adalimumab | −1.33% | −2.45% | −4.03% | −0.96% | −1.97% | −2.40% | 2.1 units | 0.5 units | 3.3 units | 0.5 units | 4.8 units | 1.0 units | effect on hand bone loss (in words) ([1]; early RA, Study J): protected against hand bone loss; hand bone loss in relation to clinically assessed disease activity (in words) ([4]; 52 weeks, DAS28 subgroups): reduces hand bone loss independent of clinically assessed disease activity
CN(Cc1cnc2nc(N)nc(N)c2n1)c1ccc(C(=O)N[C@@H](CCC(=O)O)C(=O)O)cc1 [MTX, methotrexate] | −1.42% | −2.87% | −4.62% | −1.20% | −1.86% | −3.58% | 3.4 units | 1.0 units | 5.1 units | 2.0 units | 6.4 units | 2.0 units | difference in bone loss among remission, low, moderate and high disease activity subgroups (in words) ([4]; 52 weeks): numerical differences; DXR-MCI percentage change ([4]; 52 weeks, pooled subgroup moderate and high disease activity (DAS28)): −4.65%; Mean % DXR-MCI change [4, 5]: −4.64%; median % DXR-MCI change [4, 5]: −3.02%; Mean % DXR-MCI change [4, 6]: −2.98%; median % DXR-MCI change [4, 6]: −2.20%; Mean % DXR-MCI change [4, 7]: −4.65%; median % DXR-MCI change [4, 7]: −3.33%; Mean % DXR-MCI change ([4]; Remission (DAS28<2.60)): −2.99%; median % DXR-MCI change ([4]; Remission (DAS28<2.60)): −2.14%
